Data: ChEMBL document CHEMBL1143555, “Development of low molecular weight HIV-1 protease dimerization inhibitors” (J Med Chem, 2005)

Legend:
[1] = molecular target: T1, Human immunodeficiency virus type 1 protease (Human immunodeficiency virus 1, UniProt Q72874); assay: Inhibitory concentration against human immunodeficiency virus -1 protease
[2] = molecular target: T1, Human immunodeficiency virus type 1 protease; assay: Inhibitory concentration against human immunodeficiency virus-1 protease
[3] = molecular target: Human immunodeficiency virus type 1 protease (Human immunodeficiency virus 1) (UniProt Q72874); assay: Percent inhibition of human immunodeficiency virus-1 protease after 1 uM treatment

SMILES	Ki [1] [nM]	IC50 [2] [nM]	further results
CC[C@H](C)[C@@H](NC(=O)[C@@H](NC(=O)CCCCCCCCCCCCCCC(=O)N[C@H](CC(=O)N[C@@H](Cc1ccccc1)C(=O)O)C(N)=O)[C@H](C)O)C(=O)N[C@@H](Cc1ccc(C(=O)c2ccccc2)cc1)C(N)=O	314	–	–
CCC(C)[C@@H](NC(=O)[C@H](C(C)O)N(C)C(=O)CCCCCCCCCCCCCCC(=O)NC(Cc1ccc(OP(=O)(O)O)cc1)C(=O)N[C@@H](Cc1ccccc1)C(=O)O)C(=O)NC(CO)C(N)=O (some centres undefined)	–	2100	–
CC[C@H](C)[C@@H](NC(=O)C(C)(C)NC(=O)CCCCCCCCCCCCCCC(=O)N[C@H](CC(=O)N[C@@H](Cc1ccccc1)C(=O)O)C(N)=O)C(=O)N[C@@H](Cc1ccccc1)C(N)=O	–	–	inhibition [3]: 7%
CCC(C)[C@@H](NC(=O)C(CCC(C)C)NC(=O)CCCCCCCCCCCCCCC(=O)N[C@H](CC(=O)N[C@@H](Cc1ccccc1)C(=O)O)C(N)=O)C(=O)N[C@@H](Cc1ccccc1)C(N)=O (some centres undefined)	502000	–	–
CCC(C)[C@H](NC(=O)CCCCCCCCCCCCCCC(=O)N[C@@H](CC(N)=O)C(=O)NC(C(=O)O)C1CCCCC1)C(=O)N[C@H](Cc1ccccc1)C(N)=O (some centres undefined)	254	–	–
CCC(C)[C@@H](NC(=O)C(Cc1ccc(F)c(F)c1)NC(=O)CCCCCCCCCCCCCCC(=O)N[C@H](CC(=O)N[C@@H](Cc1ccccc1)C(=O)O)C(N)=O)C(=O)N[C@@H](Cc1ccccc1)C(N)=O (some centres undefined)	–	1100	–
CCC(C)[C@@H](NC(=O)[C@@H](NC(=O)CCCCCCCCCCCCCCC(=O)N[C@@H](Cc1ccc(F)c(F)c1)C(=O)N[C@@H](Cc1ccccc1)C(=O)O)C(C)O)C(=O)NC(CO)C(N)=O (some centres undefined)	106	–	–
CC[C@H](C)[C@@H](NC(=O)[C@H]([C@H](C)O)N(C)C(=O)CCCCCCCCCCCCCCC(=O)N[C@H](Cc1ccccc1)C(=O)N[C@@H](Cc1ccccc1)C(=O)O)C(=O)NC(CO)C(N)=O (some centres undefined)	112	–	–
CCC(C)[C@H](NC(=O)CCCCCCCCCCCCCCC(=O)N[C@@H](CC(N)=O)C(=O)NC(Cc1ccc2ccccc2c1)C(=O)O)C(=O)N[C@H](Cc1ccccc1)C(N)=O (some centres undefined)	267	–	–
CC[C@H](C)[C@@H](NC(=O)[C@@H](NC(=O)CCCCCCCCCCCCCCC(=O)N[C@H](CC(=O)N[C@@H](Cc1ccccc1)C(=O)O)C(N)=O)[C@H](C)O)C(=O)N[C@@H](Cc1ccc(F)c(F)c1)C(N)=O	–	872000	–
CCC(C)[C@@H](NC(=O)C(NC(=O)CCCCCCCCCCCCCCC(=O)N[C@H](CC(=O)N[C@@H](Cc1ccccc1)C(=O)O)C(N)=O)c1ccccc1)C(=O)N[C@@H](Cc1ccccc1)C(N)=O (some centres undefined)	–	2100	–
CCC(C)[C@H](NC(=O)CCCCCCCCCCCCCCC(=O)N[C@@H](CC(N)=O)C(=O)NC(CC1CCCCC1)C(=O)O)C(=O)N[C@H](Cc1ccccc1)C(N)=O (some centres undefined)	285	–	–
CCC(C)[C@@H](NC(=O)C(CCc1ccccc1)NC(=O)CCCCCCCCCCCCCCC(=O)N[C@H](CC(=O)N[C@@H](Cc1ccccc1)C(=O)O)C(N)=O)C(=O)N[C@@H](Cc1ccccc1)C(N)=O (some centres undefined)	–	980	–
CC[C@H](C)[C@@H](NC(=O)[C@@H](NC(=O)CCCCCCCCCCCCCCC(=O)N[C@H](CC(=O)N[C@@H](Cc1ccccc1)C(=O)O)C(N)=O)[C@H](C)O)C(=O)N[C@H](Cc1ccc(C#N)cc1)C(N)=O	–	1400	–
CC[C@H](C)[C@@H](NC(=O)[C@H]([C@H](C)O)N(C)C(=O)CCCCCCCCCCCCCCC(=O)N[C@H](Cc1ccc(C#N)cc1)C(=O)N[C@@H](Cc1ccccc1)C(=O)O)C(=O)NC(CO)C(N)=O (some centres undefined)	140	–	–
CC[C@H](C)[C@@H](NC(=O)[C@@H](NC(=O)CCCCCCCCCCCCCCC(=O)N[C@H](CC(=O)N[C@@H](Cc1ccccc1)C(=O)O)C(N)=O)[C@H](C)O)C(=O)N[C@@H](Cc1ccc(OCc2ccccc2)cc1)C(N)=O	414	–	–
CCC(C)[C@H](NC(=O)CCCCCCCCCCCCCCC(=O)N[C@@H](CC(N)=O)C(=O)N[C@@H](Cc1ccc([N+](=O)[O-])cc1)C(=O)O)C(=O)N[C@H](Cc1ccccc1)C(N)=O (some centres undefined)	384	–	–
CC[C@H](C)[C@@H](NC(=O)[C@H]([C@H](C)O)N(C)C(=O)CCCCCCCCCCCCCCC(=O)Nc1ccccc1C(=O)N[C@@H](Cc1ccccc1)C(=O)O)C(=O)NC(CO)C(N)=O (some centres undefined)	235000	–	–
CC[C@H](C)[C@@H](NC(=O)[C@@H](NC(=O)CCCCCCCCCCCCCCC(=O)N[C@H](CC(=O)N[C@@H](Cc1ccccc1)C(=O)O)C(N)=O)[C@H](C)O)C(=O)N[C@H](Cc1ccc(Br)cc1)C(N)=O	–	1700	–
CCC(C)[C@@H](NC(=O)[C@@H](NC(=O)CCCCCCCCCCCCCCC(=O)N[C@@H](Cc1ccc(O)c([N+](=O)[O-])c1)C(=O)N[C@@H](Cc1ccccc1)C(=O)O)C(C)O)C(=O)NC(CO)C(N)=O (some centres undefined)	102	–	–
CC[C@H](C)[C@@H](NC(=O)C(NC(=O)CCCCCCCCCCCCCCC(=O)N[C@H](CC(=O)N[C@@H](Cc1ccccc1)C(=O)O)C(N)=O)C(C)(C)C)C(=O)N[C@@H](Cc1ccccc1)C(N)=O (some centres undefined)	–	7700	–

SMILES	Ki [1] [nM]	IC50 [2] [nM]	further results
CC[C@H](C)[C@@H](NC(=O)[C@@H](NC(=O)CCCCCCCCCCCCCCC(=O)N[C@H](CC(=O)N[C@@H](Cc1ccccc1)C(=O)O)C(N)=O)[C@H](C)O)C(=O)N[C@@H](Cc1ccccc1)C(=O)N[C@@H](Cc1ccccc1)C(N)=O	361	–	–
CC(C)C[C@H](NC(=O)[C@@H](NC(=O)CCCCCCCCCCCCCCC(=O)N[C@H](CC(=O)N[C@@H](Cc1ccccc1)C(=O)O)C(N)=O)C(C)O)C(=O)N[C@@H](Cc1ccccc1)C(N)=O (some centres undefined)	3000	5.4	–
CC[C@H](C)[C@@H](NC(=O)[C@@H](NC(=O)CCCCCCCCCCCCCCC(=O)N[C@H](CC(=O)N[C@@H](Cc1ccccc1)C(=O)O)C(N)=O)[C@H](C)O)C(=O)NC(CCc1ccccc1)C(N)=O (some centres undefined)	–	1300	–
CC[C@H](C)[C@@H](NC(=O)[C@@H](NC(=O)CCCCCCCCCCCCCCC(=O)N[C@H](CC(=O)N[C@@H](Cc1ccccc1)C(=O)O)C(N)=O)[C@H](C)O)C(=O)N[C@@H](Cc1ccc([N+](=O)[O-])cc1)C(N)=O	–	590000	–
CCC(C)[C@@H](NC(=O)[C@H](C(C)O)N(C)C(=O)CCCCCCCCCCCCCCC(=O)NC(Cc1ccc(N)cc1)C(=O)N[C@@H](Cc1ccccc1)C(=O)O)C(=O)NC(CO)C(N)=O (some centres undefined)	–	1.2	–
CC[C@H](C)[C@@H](NC(=O)[C@H]([C@H](C)O)N(C)C(=O)CCCCCCCCCCCCCCC(=O)N[C@@H](C(=O)N[C@@H](Cc1ccccc1)C(=O)O)C(C)C)C(=O)NC(CO)C(N)=O (some centres undefined)	202	–	–
CC[C@H](C)[C@@H](NC(=O)CCCCCCCCCCCCCCC(=O)N(C)[C@H](C(=O)N[C@@H](C(=O)NC(CO)C(N)=O)[C@@H](C)CC)[C@H](C)O)C(=O)N[C@@H](Cc1ccccc1)C(=O)O (some centres undefined)	140000	–	–
CC[C@H](C)[C@@H](NC(=O)[C@@H](NC(=O)CCCCCCCCCCCCCCC(=O)N[C@H](CC(=O)N[C@@H](Cc1ccccc1)C(=O)O)C(N)=O)[C@H](C)O)C(=O)NC(Cc1ccc([N+](=O)[O-])c(O)c1)C(N)=O (some centres undefined)	164	–	–
CC[C@H](C)[C@@H](NC(=O)[C@H]([C@H](C)O)N(C)C(=O)CCCCCCCCCCCCCCC(=O)NC(CC(C)C)C(=O)N[C@@H](Cc1ccccc1)C(=O)O)C(=O)NC(CO)C(N)=O (some centres undefined)	273	–	–
CCCCC(NC(=O)CCCCCCCCCCCCCCC(=O)N[C@H](CC(=O)N[C@@H](Cc1ccccc1)C(=O)O)C(N)=O)C(=O)N[C@@H](C(=O)N[C@@H](Cc1ccccc1)C(N)=O)C(C)CC (some centres undefined)	–	1600	–
CCC(C)[C@@H](NC(=O)[C@@H](NC(=O)CCCCCCCCCCCCCCC(=O)N[C@@H](C(=O)N[C@@H](Cc1ccccc1)C(=O)O)c1ccc(OCc2ccccc2)cc1)C(C)O)C(=O)NC(CO)C(N)=O (some centres undefined)	110	–	–
CC[C@H](C)[C@@H](NC(=O)[C@H]([C@H](C)O)N(C)C(=O)CCCCCCCCCCCCCCC(=O)N[C@H](CCc1ccccc1)C(=O)N[C@@H](Cc1ccccc1)C(=O)O)C(=O)NC(CO)C(N)=O (some centres undefined)	160	–	–
CCC(C)[C@H](NC(=O)CCCCCCCCCCCCCCC(=O)N[C@@H](CC(N)=O)C(=O)N[C@@H](CCc1ccccc1)C(=O)O)C(=O)N[C@H](Cc1ccccc1)C(N)=O (some centres undefined)	268	–	–
CCC(C)[C@@H](NC(=O)[C@@H](NC(=O)CCCCCCCCCCCCCCC(=O)N[C@H](CC(=O)N[C@@H](Cc1ccccc1)C(=O)O)C(N)=O)C(C)O)C(=O)N[C@@H](Cc1ccccc1)C(N)=O (some centres undefined)	210000	1.1	–
CCC(C)[C@@H](NC(=O)[C@@H](NC(=O)CCCCCCCCCCCCCCC(=O)N[C@@H](Cc1ccc([N+](=O)[O-])cc1)C(=O)N[C@@H](Cc1ccccc1)C(=O)O)C(C)O)C(=O)NC(CO)C(N)=O (some centres undefined)	103	–	–
CC[C@H](C)[C@@H](NC(=O)[C@H]([C@H](C)O)N(C)C(=O)CCCCCCCCCCCCCCC(=O)NC(Cc1ccc(O)cc1)C(=O)N[C@@H](Cc1ccccc1)C(=O)O)C(=O)NC(CO)C(N)=O (some centres undefined)	–	774	–
CC[C@H](C)[C@@H](NC(=O)[C@@H](NC(=O)CCCCCCCCCCCCCCC(=O)N[C@H](CC(=O)N[C@@H](Cc1ccccc1)C(=O)O)C(N)=O)[C@H](C)O)C(=O)N1Cc2[nH]c3ccccc3c2CC1C(N)=O (some centres undefined)	–	3100	–
CC[C@H](C)[C@@H](NC(=O)[C@@H](NC(=O)CCCCCCCCCCCCCCC(=O)N[C@H](CC(=O)N[C@@H](Cc1ccccc1)C(=O)O)C(N)=O)C(C)O)C(=O)N[C@@](C)(C(N)=O)c1cccc2ccccc12 (some centres undefined)	127	–	–
CC[C@H](C)[C@@H](NC(=O)[C@@H](NC(=O)CCCCCCCCCCCCCCC(=O)N[C@H](CC(=O)N[C@@H](Cc1ccccc1)C(=O)O)C(N)=O)[C@H](C)O)C(=O)N[C@@H](Cc1cc(I)c(O)c(I)c1)C(N)=O	–	740000	–
CC[C@H](C)[C@@H](NC(=O)[C@@H](NC(=O)CCCCCCCCCCCCCCC(=O)N[C@H](CC(=O)N[C@@H](Cc1ccccc1)C(=O)O)C(N)=O)[C@H](C)O)C(=O)N[C@@H](Cc1ccc(N)cc1)C(N)=O	–	3600	–
CCC(C)[C@H](NC(=O)CCCCCCCCCCCCCCC(=O)N[C@@H](CC(N)=O)C(=O)N[C@@H](Cc1ccc(C(=O)c2ccccc2)cc1)C(=O)O)C(=O)N[C@H](Cc1ccccc1)C(N)=O (some centres undefined)	223	–	–
